Results reported in paper PMC12320299 (Chemical Science, 2025).

Columns and labels:
[1] = Stability study by UV-Vis spectroscopy in PBS (1% DMSO); format: physicochemical; conditions: 40 μM 1a/2a, 80 μM 1b/2b
Protocol: Stability Study by UV-Vis Spectroscopy
All four compounds were freshly diluted in PBS (1% DMSO) from a DMSO stock solution at […]
(§1) 80 µM. The stability of the compounds was monitored in a UV-Vis spectrophotometer (Perkin Elmer lambda 35 photometer) over 96 h by acquiring an UV-Vis spectrum every 30 mins. The percentage of the remaining intact compound was calculated by the ratio of the maximum absorbance of the tridentate complexes’ characteristic absorption band around 350– 370 nm after a given timepoint (A) compared to the one directly after dilution (A0). […]

[2] = Stability in aqueous solution by ESI-MS; format: physicochemical; conditions: 50 μM, share of total intensity
Protocol: In order to elucidate the transformation products of hydrolysis at micromolar concentrations, the four compounds were analogously incubated at 50 μM and analysed by ESI-MS[34] in a time-dependent manner after 1.5 h, 24 h and 72 h. The four complexes of this series were quite stable over 24 h (ESI, Fig. S12 ^†), but gradually released the NQ-ligands over the course of 72 h, which was observed by the formation of characteristic metal(cymene)-dimers containing pyrazole as bridging ligands. In addition, the observation of the free 3-Morph-NQ ligand after 24 h further supported the previously established activation mechanism (ESI, Fig. S12 ^†). A mass signal, which was probably generated by in-source fragmentation corresponded to pyrazole-release. […] In general, the intensity of the intact compounds after 24 h at 50 μM corresponded to approximately 40% of the total intensity of the mass spectrum in all four cases, not accounting for ionization efficiency (Fig. 2B).
Stability Study by UV-Vis Spectroscopy […]
as §1
Samples were diluted to a concentration of 2.5 µM with an organic eluent (49.5% v/v acetonitrile, 49.5% v/v methanol,1% v/v H2O), except ubiquitin containing samples which were diluted to the same concentration with acidified H2O (0.1% v/v formic acid). The samples were then analysed by flow-injection using an amazon speed ETD ion trap (Bruker Daltonics) in the positive ion mode over 0.4 min using the following experimental parameters: HV capillary ±4.5 kV, end plate offset –500 V, dry temp 180 °C, nebulizer 3 bar, dry gas 5 L min-1, scan range m/z 200–1400, target mass m/z 900, flow rate 5 µL min-1. […]

[3] = tested on: SW480 colon carcinoma cell line; test: MTT viability assay, SW480, 24 h; format: cell-based, human; conditions: for IC50: 24 h incubation; for potency compared to morpholine-analogues 1b and 2b: SW480, 24 h
Protocol: cultured in adherent T75 flasks (Sarstedt) in a humidified incubator at 37 °C and 5% CO2 (HeraCell150i, Thermo Fisher Scientific) and subcultured three times a week as the cells reached 75–80% growth area occupied. […]
Trypsin/EDTA solution (0.25%, Sigma-Aldrich) was used for detachment of all […]
SW480 human colon carcinoma cells (4.000 cells/well for the ethyl complexes; 4.000 and 10.000 cells/well for the morpholino complexes) were seeded in flat-bottom 96-well plates (Corning) and incubated at 37 °C for 24 h in a humidified incubator at 5% CO2 (HeraCell150i, Thermo Fisher Scientific). Stock solutions of the compounds were freshly prepared in DMSO […]
10 µM in complete cell culture medium for the ethyl compounds and 5, 10, 20, 40, 60, 80, 120, 160 µM for the morpholino compounds (final concentration of DMSO ≤0.4% v/v). The cells were incubated with the compounds for 24 h and 72 h. Then, the cell metabolism was colorimetrically determined using 3-(4,5-dimethylthiazol-2-yl)-2,5-diphenyl tetrazolium bromide (MTT). For this purpose, MTT reagent (20 µL, 5 mg mL-1 in phosphate-buffered saline, PBS) was added to each well and further incubated for 4 h. The medium was gently […]
removed and 100 µL DMSO was added to dissolve the formazan crystals. Photometric quantification was performed at 570 nm with a Multiskan Go 1510 photometer (Thermo Fisher […]
The absorbances were blank corrected and converted to relative proliferation. The IC50 values (concentration of 50% growth inhibition) were obtained using a sigmoidal fit of the experimental data and calculated as the mean ± standard deviation of at least three independent experiments, each in at least triplicates. […]
(each 3.000 cells/well) were seeded in 100 µL/well into flat-bottom 96-well plates (Starlab) and incubated at 37 °C for 24 h in a humidified incubator (Binder CB210) at 5% CO2. Complex 1a, bafilomycin or bortezomib were dissolved in DMSO and diluted in appropriate cell culture medium to respective concentrations. After 24 h of treatment, plates were measured by MTT assay as described above.
Colon carcinoma cells (SW480) were seeded into 12-well plates (CytoOne, Starlab) in densities of 1×10^5 cells per well (in 1 mL complete medium). After 24 h, cells were treated with […]

## CCC1=C2[O][Os][O]C2(n2cccn2)c2ccccc2C1=O.Cc1ccc(C(C)C)cc1 (centres unmarked) [Compound 2a]
[1]
  intact complex, UV-vis, 24 h: 85%
  intact complex, UV-vis, 96 h: 61%
[2]
  Intact compound after 24 h, aqueous medium: 45%
[3]
  IC50: 1.2 ± 0.1 µM
  potency compared to morpholine-analogues 1b and 2b: > 30 times

## CCC1=C2[O][Ru][O]C2(n2cccn2)c2ccccc2C1=O.Cc1ccc(C(C)C)cc1 (centres unmarked) [Compound 1a, [(3-ethyl-4-oxo-(pyrazolyl)-dihydronaphthalene)(cymene)ruthenium(II)]]
[1]
  intact complex, UV-vis, 24 h: 75%
  intact complex, UV-vis, 96 h: 53%
[2]
  Intact compound after 24 h, aqueous medium: 42%
[3]
  IC50: 0.62 ± 0.04 µM
  potency compared to morpholine-analogues 1b and 2b: > 30 times

## Cc1ccc(C(C)C)cc1.O=C1C(CN2CCOCC2)=C2[O][Ru][O]C2(n2cccn2)c2ccccc21 (centres unmarked) [Compound 1b]
[1]
  intact complex, UV-vis, 24 h: 76%
  intact complex, UV-vis, 96 h: 64%
[2]
  Intact compound after 24 h, aqueous medium: 47%
[3]
  IC50: 38 ± 5 µM
